pEC50, pIC50: −log10 of the molar value.
Assays:
[1] = target: T1, NS5B enzyme, HCV genotype 1b (Con1) (Hepatitis C virus genotype 1b, UniProt Q9WMX2); assay: HCV NS5B RdRp enzyme assay; assay type: biochemical; conditions: 1b NS5B enzyme, 24 h preincubation, [33P]-GTP incorporation
T1 construct: Each untagged protein was expressed with an 18 amino acid C-terminal truncation to enhance the solubility; made in house; host or cells: E. coli BL21(DE3), pET21a vector
Protocol: The cDNA encoding NS5B proteins of HCV genotype 1b (Con1), a genotype 1b variant with amino acid 316 mutated from cysteine to asparagine, and genotype 2a (JFH-1), were cloned into the pET21a expression vector. Each untagged protein was expressed with an 18 amino acid C-terminal truncation to enhance the solubility. The E. coli competent cell line BL21(DE3) was used for expression of the protein. Cultures were grown at 37° C. for ˜4 hours until the cultures reached an optical density of 2.0 at 600 nm. The cultures were cooled to 20° C. and induced with 1 mM IPTG. Fresh ampicillin was added to a final concentration of 50 μg/mL and the cells were grown overnight at 20° C.
Cell pellets (3 L) were lysed for purification to yield 15-24 mgs of purified NS5B. […]
HCV NS5B RdRp enzyme assay. […] The newly synthesized RNA product was precipitated by 10% TCA and quantified on the Packard Top Count NXT. IC50 values for compounds were determined using seven different [I]. IC50 values were calculated from the inhibition using the four-parameter logistic formula y=A+((B−A)/(1+((C/x)^D))), where A and B denote minimal and maximal % inhibition, respectively, C is the IC50, D is hill slope and x represents compound concentration.

[2] = tested on: genotype 1b (Con-1) HCV replicon; assay: HCV replicon luciferase assay; assay type: cell-based; conditions: Hepatitis C virus, Huh-7, 72 h
Protocol: The cell lines used to evaluate compounds consist of a human hepatocyte derived cell line (Huh-7) that constitutively expresses a genotype 1b (Con-1) HCV replicon or a genotype 1b (Con-1) HCV replicon with an asparagine replacing the cysteine at amino acid 316, or a genotype 2a (JFH-1) replicon, containing a Renilla luciferase reporter gene. These cells were maintained in Dulbecco's modified Eagle medium (DMEM) containing 10% FBS, 100 U/mL penicillin/streptomycin and 1.0 mg/mL G418.
To evaluate compound efficacy, titrated compounds were transferred to sterile 384-well tissue culture treated plates, and the plates were seeded with HCV replicon cells (50 μL at a density of 2.4×10^3 cells/well) in DMEM containing 4% FBS (final DMSO concentration at 0.5%). After 3 days incubation at 37 C, cells were analyzed for Renilla Luciferase activity using the EnduRen substrate (Promega cat #E6485) according to the manufacturer's directions. […] The plates were incubated for at least 1 h at 37° C. then read on a Viewlux Imager (PerkinElmer) using a luminescence program. […]
To assess cytotoxicity of compounds, Cell Titer-Blue (Promega) was added to the EnduRen-containing plates and incubated for at least 4 h at 37° C. The fluorescence signal from each well was read using a Viewlux Imager. All CC50 values were calculated using the four-parameter logistic formula.

HCV = conditions: cited from earlier work

T1 sequence (Q9WMX2 2420-2992): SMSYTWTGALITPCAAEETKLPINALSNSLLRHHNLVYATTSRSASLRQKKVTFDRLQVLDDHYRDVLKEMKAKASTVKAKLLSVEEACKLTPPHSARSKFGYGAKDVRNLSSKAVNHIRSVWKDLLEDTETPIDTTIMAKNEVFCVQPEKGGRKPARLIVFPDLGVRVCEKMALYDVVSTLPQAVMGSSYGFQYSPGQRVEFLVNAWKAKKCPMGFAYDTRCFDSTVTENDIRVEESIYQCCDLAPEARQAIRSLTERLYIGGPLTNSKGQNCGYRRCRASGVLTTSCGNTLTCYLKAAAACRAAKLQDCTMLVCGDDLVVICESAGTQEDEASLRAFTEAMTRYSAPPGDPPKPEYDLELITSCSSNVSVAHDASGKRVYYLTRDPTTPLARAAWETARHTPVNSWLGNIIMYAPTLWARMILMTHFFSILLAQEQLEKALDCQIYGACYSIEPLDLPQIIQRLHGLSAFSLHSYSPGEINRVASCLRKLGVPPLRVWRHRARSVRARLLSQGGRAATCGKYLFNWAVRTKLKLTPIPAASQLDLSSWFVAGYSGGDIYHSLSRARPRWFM

CC[C@@H](C)c1cc2oc(-c3ccc(F)cc3)c(C(=O)NC)c2cc1-c1cccc(C(=O)NC(C)(C)c2ncon2)c1 (single isomer, unassigned) [Enantiomer 2]
pIC50 [1]: 8.64
pEC50 [2]: 8.26

CNC(=O)c1c(-c2ccc(F)cc2)oc2cc(N(CCO)S(C)(=O)=O)c(C3CC3)cc12 [HCV-796]
toxicity during extended dosing of the combination regimens (HCV; patients, combined with interferon and ribavirin): hepatic toxicity
HCV RNA levels in patients (HCV; single agent: transient decrease then rebound during dosing): reduce HCV RNA levels
